{"source": "patent US20070037752A1", "about": "“Novel alanyl-amino peptidase inhibitors for functionally influencing different cells and treating immunological, inflammatory, neuronal, and other diseases” (priority 2003, published 2007)", "molecular_target": "alanyl aminopeptidases (APN) (Homo sapiens, UniProt P15144)", "sequence (P15144 whole entry, species assumed)": "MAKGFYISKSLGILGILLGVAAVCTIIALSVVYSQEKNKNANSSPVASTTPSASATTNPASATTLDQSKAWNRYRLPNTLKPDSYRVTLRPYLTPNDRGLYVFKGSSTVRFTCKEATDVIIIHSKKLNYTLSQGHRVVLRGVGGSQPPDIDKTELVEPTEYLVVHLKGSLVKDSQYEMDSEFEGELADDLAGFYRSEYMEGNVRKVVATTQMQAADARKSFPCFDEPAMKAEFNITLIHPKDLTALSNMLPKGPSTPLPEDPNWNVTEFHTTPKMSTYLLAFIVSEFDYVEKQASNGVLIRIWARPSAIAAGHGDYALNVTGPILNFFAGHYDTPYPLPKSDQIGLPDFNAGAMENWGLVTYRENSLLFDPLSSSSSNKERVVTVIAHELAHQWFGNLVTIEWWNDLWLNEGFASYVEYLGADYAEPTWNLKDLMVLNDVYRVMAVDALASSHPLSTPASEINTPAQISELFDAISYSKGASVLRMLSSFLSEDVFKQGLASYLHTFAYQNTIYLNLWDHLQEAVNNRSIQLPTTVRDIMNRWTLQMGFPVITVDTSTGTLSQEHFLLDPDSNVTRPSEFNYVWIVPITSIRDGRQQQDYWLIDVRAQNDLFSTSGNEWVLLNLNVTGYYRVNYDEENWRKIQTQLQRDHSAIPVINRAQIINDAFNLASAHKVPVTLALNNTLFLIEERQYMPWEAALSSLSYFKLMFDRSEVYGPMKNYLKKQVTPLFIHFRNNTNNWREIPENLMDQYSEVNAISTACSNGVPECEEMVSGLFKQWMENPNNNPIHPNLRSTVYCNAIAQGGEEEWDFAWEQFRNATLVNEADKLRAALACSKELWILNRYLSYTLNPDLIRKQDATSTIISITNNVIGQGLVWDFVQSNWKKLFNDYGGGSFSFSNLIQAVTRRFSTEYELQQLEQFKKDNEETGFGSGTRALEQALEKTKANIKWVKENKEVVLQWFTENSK", "assay": "Inhibition of alanyl aminopeptidase enzymatic activity, fluorogenic substrate (Ala)2-rhodamine 110", "format": "biochemical", "experimental": "The inhibition characteristics measured are referred to as IC-50 values or ID50 values (the latter marked with “*”) for said enzyme. The enzymatic activity was determined by means of the fluorogenic substrate/product (Ala)2-rhodamine 110.", "key": {"[1]": {"details": "Table 4, unstarred values, read-out: IC50APN"}, "[2]": {"details": "Table 3, unstarred values, read-out: IC50APN"}, "[3]": {"details": "Table 8, unstarred values, read-out: IC50APN"}, "[4]": {"details": "Table 9, unstarred values, read-out: IC50APN"}, "[5]": {"details": "Table 3, starred values = ID50, read-out: ID50 APN (values marked with *)"}}, "note": "pIC50: −log10 of the molar value. Where two headings read alike, the source gives them in different places. Non-standard residues stand in square brackets, D forms with d. Residues, ends and D or L forms follow the SMILES beside them.", "data": [{"smiles": "C#CCN1C(c2cnccn2)=NC(CC(C)C)C1C(=O)Nc1c(C)cccc1C", "note": "(centres unmarked) [A9.119]", "values": [{"measurement": "pIC50", "setting": "Table 9, starred values = ID50, read-out: ID50 APN (values marked with *)", "result": 3.99}]}, {"smiles": "COCc1c(C(=O)N/N=C/c2ccc(C)o2)nnn1-c1nonc1N", "note": "[A4.022]", "values": [{"measurement": "pIC50", "setting": "[1]", "result": 4.90}]}, {"smiles": "COc1ccc(C2NCCS2)cc1Br", "note": "(centres unmarked) [A3.215]", "values": [{"measurement": "pIC50", "setting": "[2]", "result": 4.45}]}, {"smiles": "CC1SC(N/N=C/c2ccco2)=NC1=O", "note": "(centres unmarked) [A8.006]", "values": [{"measurement": "pIC50", "setting": "[3]", "result": 5.10}]}, {"smiles": "O=C(N/C(=C\\c1ccco1)C(=O)N1CCOCC1)c1ccco1", "note": "[A3.058]", "values": [{"measurement": "pIC50", "setting": "[2]", "result": 4.87}]}, {"smiles": "O=C(CNC(=O)c1ccccc1F)N/N=C/c1ccc([N+](=O)[O-])o1", "note": "[A4.150]", "values": [{"measurement": "pIC50", "setting": "[1]", "result": 4.22}]}, {"smiles": "O=C(N/N=C/c1ccco1)c1cc(C2CC2)n[nH]1", "note": "[A4.030]", "values": [{"measurement": "pIC50", "setting": "[1]", "result": 4.84}]}, {"smiles": "Cc1ccc(/C=N/NC(=O)COc2cccc(Cl)c2)o1", "note": "[A3.284]", "values": [{"measurement": "pIC50", "setting": "[2]", "result": 4.20}]}, {"smiles": "NCCCC[C@@H](N)C(=O)N[C@H](Cc1ccccc1)C(=O)N[C@H](Cc1ccc(O)cc1)C(=O)O", "note": "[A12.011] (H-[dK]-[dF]-[dY]-OH)", "values": [{"measurement": "pIC50", "setting": "Table 12, read-out: IC50APN", "result": 5.14}]}, {"smiles": "CC1=C(C#N)C(O)=NC(=O)/C1=C/c1ccc(-c2ccc(Cl)cc2Cl)o1", "note": "[A3.197]", "values": [{"measurement": "pIC50", "setting": "[2]", "result": 4.49}]}, {"smiles": "O=C(CCOC(c1ccccc1)c1ccc(Br)cc1)NO", "note": "(centres unmarked) [A12.008]", "values": [{"measurement": "pIC50", "setting": "Table 12, read-out: IC50APN", "result": 5.20}]}, {"smiles": "CSCCC(Nc1ncnc2c1oc1ccccc12)C(=O)O", "note": "(centres unmarked) [A9.097]", "values": [{"measurement": "pIC50", "setting": "[4]", "result": 4.32}]}, {"smiles": "Cc1ccc(/C=N/NC(=O)c2nnn(-c3nonc3N)c2-c2ccccc2)o1", "note": "[A3.025]", "values": [{"measurement": "pIC50", "setting": "[2]", "result": 5.16}]}, {"smiles": "CCOC(=O)N1CCc2c(sc(NC(=O)c3ccc(F)cc3)c2C(=O)Nc2ccc(Br)cc2)C1", "note": "[A8.005]", "values": [{"measurement": "pIC50", "setting": "[3]", "result": 5.14}]}, {"smiles": "O=C(CCNC(=O)c1ccccc1Br)N/N=C/c1ccco1", "note": "[A3.311]", "values": [{"measurement": "pIC50", "setting": "[5]", "result": 4.07}]}, {"smiles": "CC(=O)Nc1ccc(C(=O)N/N=C/c2ccc(C)o2)cc1", "note": "[A4.095]", "values": [{"measurement": "pIC50", "setting": "[1]", "result": 4.53}]}, {"smiles": "O=C(CNC(=O)c1ccccc1Br)N/N=C/c1ccoc1", "note": "[A3.192]", "values": [{"measurement": "pIC50", "setting": "[2]", "result": 4.50}]}, {"smiles": "COC(=O)C1=C(N)N2C(=O)CSC2=C(C(=O)OC)C1", "note": "[A3.001]", "values": [{"measurement": "IC50APN", "setting": "Table 3, unstarred values", "result": "“very high"}]}, {"smiles": "COc1ccc(C(=O)N/N=C/c2cc(Br)c(C)o2)cc1", "note": "[A4.060]", "values": [{"measurement": "pIC50", "setting": "[1]", "result": 4.66}]}, {"smiles": "CC1(C)N=C(N)N=C(N)N1c1c(Cl)cccc1Cl", "note": "[A9.105]", "values": [{"measurement": "pIC50", "setting": "[4]", "result": 4.22}]}, {"smiles": "Cc1cccc(C(=O)Nc2cccc(C(=O)N/N=C/c3ccc(C)o3)c2)c1", "note": "[A4.115]", "values": [{"measurement": "pIC50", "setting": "[1]", "result": 4.44}]}, {"smiles": "COc1ccc(Cl)cc1NC(O)CCN1C(=O)C2C3C=CC(C3)C2C1O", "note": "(centres unmarked) [A12.026]", "values": [{"measurement": "pIC50", "setting": "Table 12, read-out: IC50APN", "result": 4.87}]}, {"smiles": "Cc1ccc(Cn2c(SCCC(=O)O)nc3c2c(=O)n(C)c(=O)n3C)cc1", "note": "[A3.170]", "values": [{"measurement": "pIC50", "setting": "[2]", "result": 4.55}]}, {"smiles": "CC(C(=O)N/N=C/c1ccco1)n1nnc2ccccc21", "note": "(centres unmarked) [A3.327]", "values": [{"measurement": "pIC50", "setting": "[5]", "result": 3.83}]}, {"smiles": "CC(C)(C)c1ccc2c(c1)C1c3ccc(C(C)(C)C)cc3C2C2C(=O)N(c3cccc(Cl)c3)C(=O)C12", "note": "(centres unmarked) [A3.348]", "values": [{"measurement": "pIC50", "setting": "[5]", "result": 3.49}]}, {"smiles": "COc1ccc(C2C(C(=O)c3ccccc3)C(c3ccccc3)C(C(=O)NCc3ccc(F)cc3)N2C(=O)NC2CCCCC2)cc1", "note": "(centres unmarked) [A3.342]", "values": [{"measurement": "pIC50", "setting": "[5]", "result": 3.64}]}, {"smiles": "Cc1ccc(/C=N/NC(=O)c2cccc(NC(=O)c3ccccc3C)c2)o1", "note": "[A3.093]", "values": [{"measurement": "pIC50", "setting": "[2]", "result": 4.72}]}, {"smiles": "COC(=O)c1cc(C(=O)NC2CCSC2=O)cc([N+](=O)[O-])c1", "note": "(centres unmarked) [A11.036]", "values": [{"measurement": "pIC50", "setting": "Table 11, read-out: IC50APN", "result": 3.62}]}, {"smiles": "Clc1ccc(-n2cc3c(-c4ccco4)nnc(-c4nc5ccccc5s4)c3n2)cc1", "note": "[A3.065]", "values": [{"measurement": "pIC50", "setting": "[2]", "result": 4.84}]}, {"smiles": "CCOC(=O)c1c(N)ncn1-c1ccccc1", "note": "[A3.020]", "values": [{"measurement": "pIC50", "setting": "[2]", "result": 5.27}]}, {"smiles": "Cc1[nH]c2ccccc2c1C(c1cc(Cl)ccc1O)N1CCOCC1", "note": "(centres unmarked) [A9.025]", "values": [{"measurement": "pIC50", "setting": "[4]", "result": 4.93}]}, {"smiles": "O=C(NC(Sc1ccncn1)C(=O)c1ccccc1)c1ccccc1", "note": "(centres unmarked) [A9.068]", "values": [{"measurement": "pIC50", "setting": "[4]", "result": 4.57}]}, {"smiles": "O=C(Nc1ccccc1C(=O)N/N=C/c1ccco1)c1ccc(Cl)cc1Cl", "note": "[A4.046]", "values": [{"measurement": "pIC50", "setting": "[1]", "result": 4.73}]}, {"smiles": "CC1CCN(C(=O)/C(=C\\c2ccco2)NC(=O)c2ccccc2)CC1", "note": "[A3.244]", "values": [{"measurement": "pIC50", "setting": "[2]", "result": 4.35}]}, {"smiles": "O=C(N/N=C/c1ccco1)c1ccc(F)cc1", "note": "[A4.159]", "values": [{"measurement": "pIC50", "setting": "[1]", "result": 4.16}]}, {"smiles": "Brc1cc2c(cc1Br)OCCOCCOCCOCCOCCO2", "note": "[A12.002]", "values": [{"measurement": "pIC50", "setting": "Table 12, read-out: IC50APN", "result": 6.15}]}, {"smiles": "O=C(O)C1N=NC(c2ccc(F)cc2)=CN1O", "note": "(centres unmarked) [A12.031]", "values": [{"measurement": "pIC50", "setting": "Table 12, read-out: IC50APN", "result": 4.77}]}, {"smiles": "Cc1ccc(C(=O)N/C(=C\\c2ccco2)C(=O)N2CC3CC(C2)c2cccc(=O)n2C3)cc1", "note": "(centres unmarked) [A3.042]", "values": [{"measurement": "pIC50", "setting": "[2]", "result": 4.96}]}, {"smiles": "CCCCc1noc2c1/C(=N/O)CC(c1ccccc1)C2", "note": "(centres unmarked) [A3.006]", "values": [{"measurement": "pIC50", "setting": "[5]", "result": 5.66}]}, {"smiles": "COC(=O)c1cccc(-c2ccc(/C=C3\\C(=O)N(CCO)C(=O)C(C#N)=C3C)o2)c1", "note": "[A3.023]", "values": [{"measurement": "pIC50", "setting": "[2]", "result": 5.20}]}, {"smiles": "Cc1ccccc1S(=O)(=O)Nc1cccc(C(=O)N/N=C/c2ccco2)c1", "note": "[A4.049]", "values": [{"measurement": "pIC50", "setting": "[1]", "result": 4.72}]}, {"smiles": "O=C(CC(=O)N/N=C/c1ccco1)N/N=C/c1ccco1", "note": "[A4.102]", "values": [{"measurement": "pIC50", "setting": "[1]", "result": 4.49}]}, {"smiles": "COc1cc(Br)cc(Br)c1OCC(=O)N/N=C/c1cc(O)c(O)c(Br)c1Br", "note": "[A4.010]", "values": [{"measurement": "pIC50", "setting": "[1]", "result": 5.14}]}, {"smiles": "O=C(CCOC(c1ccc(F)cc1)c1ccc(F)cc1)NO", "note": "[A12.041]", "values": [{"measurement": "pIC50", "setting": "Table 12, read-out: IC50APN", "result": 4.66}]}, {"smiles": "Cc1cc(Cl)ccc1OCCC(=O)NO", "note": "[A1.002]", "values": [{"measurement": "pIC50", "setting": "Table 1, unstarred values, read-out: IC50APN", "result": 5.25}]}, {"smiles": "O=C1c2cccc3c(Br)c([N+](=O)[O-])cc(c23)C(=O)N1c1cccc([N+](=O)[O-])c1", "note": "[A11.016]", "values": [{"measurement": "pIC50", "setting": "Table 11, read-out: IC50APN", "result": 4.63}]}, {"smiles": "COC(=O)c1cc(C(=O)NC2CCSC2=O)cc([N+](=O)[O-])c1", "note": "(centres unmarked) [A3.341]", "values": [{"measurement": "pIC50", "setting": "[5]", "result": 3.62}]}]}
